What was measured:
[1] = tested on: human lung cancer strain NCI-H441; test: cells; conditions: NCI-H441, 96 h, read-out: NCI-H441 IC50 (nM), NCI-H441 cell proliferation, 4 days, CellTiter-Glo;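 further: cell proliferation inhibition after four days measured by CellTiter-Glo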
[2] = target: GDP-bound HRAS wild-type protein (Homo sapiens, UniProt P01112); test: Binding to HRAS by surface plasmon resonance (SPR), Single Cycle Kinetics; conditions: ratio of KD for GDP-bound HRAS wild-type protein to KD for KRAS, SPR
[3] = target: GDP-bound KRAS wild-type protein (Homo sapiens, UniProt P01116); test: Binding to KRAS by surface plasmon resonance (SPR), Single Cycle Kinetics; conditions: SPR, Single Cycle Kinetics, GDP-bound KRAS wild-type protein; read-out: KRAS KD
[4] = target: GDP-bound NRAS wild-type protein (Homo sapiens, UniProt P01111); test: Binding to NRAS by surface plasmon resonance (SPR), Single Cycle Kinetics; conditions: ratio of KD for GDP-bound NRAS wild-type protein to KD for KRAS, SPR
Sequence of GDP-bound NRAS wild-type protein (P01111 whole entry): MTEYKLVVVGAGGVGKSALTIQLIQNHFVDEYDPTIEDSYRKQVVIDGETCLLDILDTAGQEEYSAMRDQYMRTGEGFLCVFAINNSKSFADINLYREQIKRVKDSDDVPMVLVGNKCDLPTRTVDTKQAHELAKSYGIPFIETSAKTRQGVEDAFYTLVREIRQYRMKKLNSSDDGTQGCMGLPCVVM

Sequence of GDP-bound KRAS wild-type protein (P01116 whole entry): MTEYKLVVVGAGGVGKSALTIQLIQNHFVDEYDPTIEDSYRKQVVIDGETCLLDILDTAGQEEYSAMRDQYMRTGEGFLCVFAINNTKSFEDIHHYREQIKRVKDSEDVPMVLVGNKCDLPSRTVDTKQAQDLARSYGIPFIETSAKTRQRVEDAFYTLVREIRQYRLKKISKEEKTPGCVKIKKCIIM
Sequence of GDP-bound HRAS wild-type protein (P01112 whole entry): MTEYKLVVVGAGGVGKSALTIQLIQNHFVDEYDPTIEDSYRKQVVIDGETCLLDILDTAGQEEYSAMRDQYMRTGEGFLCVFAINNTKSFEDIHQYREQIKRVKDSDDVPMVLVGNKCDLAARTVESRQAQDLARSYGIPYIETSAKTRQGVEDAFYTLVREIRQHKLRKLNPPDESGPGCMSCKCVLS

Compound | IC50 [1] [nM] | HRAS/KRAS (KD ratio) [2] | Kd [3] [nM] | NRAS/KRAS (KD ratio) [4]
CCO[C@@H]1C[C@H]2C(=O)NC3(CC(C)(C)C3)C(=O)N(C)[C@@H](C3CCCC3)C(=O)N(C)[C@H](C(=O)N(C)C)CC(=O)N(C)[C@@H](CC3CC3)C(=O)N[C@@H]([C@@H](C)CC)C(=O)N(C)CC(=O)N(C)[C@H]3C/C=C\CCN(C3=O)[C@@H](Cc3ccc(C(F)(F)F)cc3)C(=O)N(C)CC(=O)N[C@@H](CCc3cc(F)c(Cl)c(F)c3)C(=O)N2C1 [PP1759] | 6.2 | A (a compound having 10 or more and less than 20 is denoted as A) | 0.15 | A (a compound having 10 or more and less than 20 is denoted as A)
CCO[C@@H]1C[C@H]2C(=O)NC3(CC(C)(C)C3)C(=O)N(C)[C@@H](C3CCCC3)C(=O)N(C)[C@H](C(=O)N(C)C)CC(=O)N(C)[C@@H](CC(C)C)C(=O)N[C@@H]([C@@H](C)CC)C(=O)N(C)CC(=O)N(C)[C@H]3C/C=C\CCN(C3=O)[C@@H](Cc3ccc(C(F)(F)F)cc3)C(=O)N(C)CC(=O)N[C@@H](CCc3cc(F)c(Cl)c(F)c3)C(=O)N2C1 [PP1761] | 5.2 | A (a compound having 10 or more and less than 20 is denoted as A) | 0.17 | A (a compound having 10 or more and less than 20 is denoted as A)
CCO[C@@H]1C[C@H]2C(=O)NC3(CC(C)(C)C3)C(=O)N(C)[C@@H](C3CCCC3)C(=O)N(C)[C@H](C(=O)N(C)C)CC(=O)N(C)[C@@H](CC3CCC3)C(=O)N[C@@H]([C@@H](C)CC)C(=O)N(C)CC(=O)N(C)[C@H]3C/C=C\CCN(C3=O)[C@@H](Cc3ccc(C(F)(F)F)cc3)C(=O)N(C)CC(=O)N[C@@H](CCc3cc(F)c(Cl)c(F)c3)C(=O)N2C1 [PP1762] | 8.4 | A (a compound having 10 or more and less than 20 is denoted as A) | 0.26 | A (a compound having 10 or more and less than 20 is denoted as A)
CCCN(C)C(=O)[C@@H]1CC(=O)N(C)[C@@H](COC)C(=O)N[C@@H]([C@@H](C)CC)C(=O)N(C)CC(=O)N(C)[C@H]2C/C=C\CCN(C2=O)[C@@H](Cc2ccc(C(F)(F)F)cc2)C(=O)N(C)CC(=O)N[C@@H](CCc2cc(F)c(Cl)c(F)c2)C(=O)N2C[C@H](OCC)C[C@H]2C(=O)NC2(CC(C)(C)C2)C(=O)N(C)[C@@H](C2CCCC2)C(=O)N1C [PP1763] | 13.3 | A (a compound having 10 or more and less than 20 is denoted as A) | 0.23 | A (a compound having 10 or more and less than 20 is denoted as A)
CCCOC[C@H]1C(=O)N[C@@H]([C@@H](C)CC)C(=O)N(C)CC(=O)N(C)[C@H]2C/C=C\CCN(C2=O)[C@@H](Cc2ccc(C(F)(F)F)cc2)C(=O)N(C)CC(=O)N[C@@H](CCc2cc(F)c(Cl)c(F)c2)C(=O)N2C[C@H](OCC)C[C@H]2C(=O)NC2(CC(C)(C)C2)C(=O)N(C)[C@@H](C2CCCC2)C(=O)N(C)[C@H](C(=O)N(C)C)CC(=O)N1C [PP1764] | 11.1 | A (a compound having 10 or more and less than 20 is denoted as A) | 0.11 | AA (a compound having 20 or more is denoted as AA)
CCO[C@@H]1C[C@H]2C(=O)NC3(CCC3)C(=O)N(C)[C@@H](C3CCCC3)C(=O)N(C)[C@H](C(=O)N(C)C)CC(=O)N(CC)[C@@H](CC(C)C)C(=O)N[C@@H]([C@@H](C)CC)C(=O)N(C)CC(=O)N(C)[C@H]3C/C=C\CCN(C3=O)[C@@H](Cc3ccc(C(F)(F)F)cc3)C(=O)N(C)CC(=O)N[C@@H](CCc3cc(F)c(C(F)(F)F)c(F)c3)C(=O)N2C1 [PP1765] | 16.8 | A (a compound having 10 or more and less than 20 is denoted as A) | 0.084 | A (a compound having 10 or more and less than 20 is denoted as A)
CCC[C@H]1C(=O)N[C@@H]([C@@H](C)CC)C(=O)N(CCC)CC(=O)N(C)[C@H]2C/C=C\CCN(C2=O)[C@@H](Cc2ccc(C(F)(F)F)cc2)C(=O)N(C)CC(=O)N[C@@H](CCc2cc(F)c(C(F)(F)F)c(F)c2)C(=O)N2C[C@H](OCC)C[C@H]2C(=O)NC2(CCC2)C(=O)N(C)[C@@H](C2CCCC2)C(=O)N(C)[C@H](C(=O)N(C)C)CC(=O)N1C [PP1767] | 17.9 | B (a compound having 3 or more and less than 10 is denoted as B) | 0.34 | A (a compound having 10 or more and less than 20 is denoted as A)
CCO[C@@H]1C[C@H]2C(=O)NC3(CC(C)(C)C3)C(=O)N(C)[C@@H](C3CCCC3)C(=O)N(CC)[C@H](C(=O)N(C)C)CC(=O)N(C)[C@@H](CC)C(=O)N[C@@H]([C@@H](C)CC)C(=O)N(C)CC(=O)N(C)[C@H]3C/C=C\CCN(C3=O)[C@@H](Cc3ccc(C(F)(F)F)cc3)C(=O)N(C)CC(=O)N[C@@H](CCc3cc(F)c(C(F)(F)F)c(F)c3)C(=O)N2C1 [PP1768] | 4.9 | A (a compound having 10 or more and less than 20 is denoted as A) | 0.32 | A (a compound having 10 or more and less than 20 is denoted as A)
CCC[C@H]1C(=O)N[C@@H]([C@@H](C)CC)C(=O)N(C)CC(=O)N(C)[C@H]2C/C=C\CCN(C2=O)[C@@H](Cc2ccc(C(F)(F)F)cc2)C(=O)N(C)CC(=O)N[C@@H](CCc2cc(F)c(C(F)(F)F)c(F)c2)C(=O)N2C[C@H](OCC)C[C@H]2C(=O)NC2(CCC2)C(=O)N(C)[C@@H](C2CCCC2)C(=O)N(CCC)[C@H](C(=O)N(C)C)CC(=O)N1C [PP1769] | 12.9 | A (a compound having 10 or more and less than 20 is denoted as A) | 0.78 | A (a compound having 10 or more and less than 20 is denoted as A)
CCO[C@@H]1C[C@H]2C(=O)NC3(CC(C)(C)C3)C(=O)N(C)[C@@H](C3CCCC3)C(=O)N(C)[C@H](C(=O)N(C)CC)CC(=O)N(C)[C@@H](CC(C)C)C(=O)N[C@@H]([C@@H](C)CC)C(=O)NCC(=O)N(C)[C@H]3C/C=C\CCN(C3=O)[C@@H](Cc3ccc(C(F)(F)F)cc3)C(=O)N(C)CC(=O)N[C@@H](CCc3cc(F)c(C(F)(F)F)c(F)c3)C(=O)N2C1 [PP1771] | 6.6 | A (a compound having 10 or more and less than 20 is denoted as A) | 0.097 | A (a compound having 10 or more and less than 20 is denoted as A)
CCO[C@@H]1C[C@H]2C(=O)NC3(CC(C)(C)C3)C(=O)N(C)[C@@H](C3CCCC3)C(=O)N(C)[C@H](C(=O)N(C)C)CC(=O)N(CC)[C@@H](CC(C)C)C(=O)N[C@@H]([C@@H](C)CC)C(=O)NCC(=O)N(C)[C@H]3C/C=C\CCN(C3=O)[C@@H](Cc3ccc(C(F)(F)F)cc3)C(=O)N(C)CC(=O)N[C@@H](CCc3cc(F)c(C(F)(F)F)c(F)c3)C(=O)N2C1 [PP1772] | 13.4 | B (a compound having 3 or more and less than 10 is denoted as B) | 0.23 | B (a compound having 3 or more and less than 10 is denoted as B)
CCO[C@@H]1C[C@H]2C(=O)NC3(CC(C)(C)C3)C(=O)N(C)[C@@H](C3CCCC3)C(=O)N(CC)[C@H](C(=O)N(C)C)CC(=O)N(C)[C@@H](CC(C)C)C(=O)N[C@@H]([C@@H](C)CC)C(=O)NCC(=O)N(C)[C@H]3C/C=C\CCN(C3=O)[C@@H](Cc3ccc(C(F)(F)F)cc3)C(=O)N(C)CC(=O)N[C@@H](CCc3cc(F)c(C(F)(F)F)c(F)c3)C(=O)N2C1 [PP1773] | 39.9 | A (a compound having 10 or more and less than 20 is denoted as A) | 0.53 | A (a compound having 10 or more and less than 20 is denoted as A)
CC[C@H](C)[C@@H]1NC(=O)[C@H](CC(C)C)N(C)C(=O)C[C@@H](C(=O)N(C)C)N(C)C(=O)[C@H](C2CCCC2)N(C)C(=O)C2(CC(C)(C)C2)NC(=O)CN(C)C(=O)[C@H](CCc2cc(F)c(C(F)(F)F)c(F)c2)NC(=O)CN(C)C(=O)[C@H](Cc2ccc(C(F)(F)F)cc2)N2CC/C=C\C[C@@H](C2=O)N(C)C(=O)CN(C)C1=O [PP1776] | 98.7 | A (a compound having 10 or more and less than 20 is denoted as A) | 0.54 | A (a compound having 10 or more and less than 20 is denoted as A)
CCC[C@H]1C(=O)N[C@@H]([C@@H](C)CC)C(=O)N(C)CC(=O)N(C)[C@H]2C/C=C\CCN(C2=O)[C@@H](Cc2ccc(C(F)(F)F)cc2)C(=O)N(C)CC(=O)N[C@@H](CCc2cc(F)c(C(F)(F)F)c(F)c2)C(=O)N(CC)CC(=O)NC2(CC(C)(C)C2)C(=O)N(C)[C@@H](C2CCCC2)C(=O)N(C)[C@H](C(=O)N(C)C)CC(=O)N1C [PP1777] | 79.3 | B (a compound having 3 or more and less than 10 is denoted as B) | 0.36 | A (a compound having 10 or more and less than 20 is denoted as A)
CCO[C@@H]1C[C@H]2C(=O)N(C)C3(CCC3)C(=O)N(C)[C@@H](C3CCCC3)C(=O)N(C)[C@H](C(=O)N(C)C)CC(=O)N(C)[C@@H](CC)C(=O)N[C@@H]([C@@H](C)CC)C(=O)N(C)CC(=O)N(C)[C@H]3C/C=C\CCN(C3=O)[C@@H](Cc3ccc(C(F)(F)F)cc3)C(=O)N(C)CC(=O)N[C@@H](CCc3cc(F)c(C(F)(F)F)c(F)c3)C(=O)N2C1 [PP1779] | 5.4 | B (a compound having 3 or more and less than 10 is denoted as B) | 0.034 | A (a compound having 10 or more and less than 20 is denoted as A)

Source: US20240158446A1, “CYCLIC COMPOUND HAVING SELECTIVE INHIBITORY ACTION ON KRAS OVER HRAS AND NRAS” (CHUGAI SEIYAKU KABUSHIKI KAISHA, priority 2021, published 2024)
